The compounds below were run on 3T3-L1 pre-adipocytes (assay: Glucose uptake (2-deoxy glucose uptake) by 3T3-L1 pre-adipocytes). Settings: 5 μM compound, 24 hours exposure, 3T3-L1 pre-adipocytes, basal conditions, without serum starvation, 2-DG uptake.
Assay type: cell-based
Description: Glucose uptake by 3T3-L1 cells exposed to compounds 1-11 was determined at 5 μM concentration. Cells were exposed to compounds 1-11 for 24 hours and exposure to DMSO was used as the control group. 2-Deoxy glucose (2-DG) uptake was determined using the analog compounds without serum starving the cells prior to determining glucose uptake. Glucose uptake in 3T3-L1 pre-adipocytes was determined by exposing cells to compounds 1-11 for 24 hours without serum starvation. P values presented in the Table indicate statistical significance (p<0.05).
With `N#CC(Nc1ccc([B-](F)(F)F)cc1)c1ccc(O)cc1.[K+]` (centres unmarked) [Example 2, Potassium (4-((cyano(4-hydroxyphenyl)methyl)amino)phenyl)trifluoroborate] the “Percent increase in glucose uptake in comparison to DMSO treated Control” value (“Percent increase in glucose uptake” below) was “No increase”.
For `COc1cc(C(C#N)Nc2ccc([B-](F)(F)F)cc2)cc(OC)c1OC.[K+]` (centres unmarked) [Example 8, Potassium (4-((cyano(3,4,5-trimethoxyphenyl)methyl)amino)phenyl) trifluoroborate], the “Percent increase in glucose uptake” value was 43%.
`N#CC(Nc1ccc([B-](F)(F)F)cc1)c1ccc([B-](F)(F)F)cc1.[K+].[K+]` (centres unmarked) [Example 11] was tested, and the “Percent increase in glucose uptake” value was 53%.

Same assay, conditions: Mus musculus, 3T3-L1, 24 h, read-out: Percent increase in glucose uptake in comparison to DMSO treated Control
`N#CC(Nc1ccc(O)cc1)c1ccc([B-](F)(F)F)cc1` (centres unmarked) [Example 10, Potassium (4-(cyano((4-hydroxyphenyl)amino)methyl)phenyl)trifluoroborate] gave an activation at 5 µM of 31%.
With `N#CC(Nc1ccc([B-](F)(F)F)cc1)c1cccnc1` (centres unmarked) [Example 9, Potassium (4-((cyano(pyridin-3-yl)methyl)amino)phenyl)trifluoroborate] the activation at 5 µM was 54%.

Same assay, conditions: Mus musculus; 5 μM compound, 24 hours exposure, 3T3-L1 pre-adipocytes, basal conditions, without serum starvation, 2-DG uptake; read-out: Percent increase in glucose uptake in comparison to DMSO treated Control
Compound `CC1=C(C(C#N)Nc2ccc(B3OC(C)(C)C(C)(C)O3)cc2)C(C)(C)CCC1` (centres unmarked) [Example 4, 2-((4-(4,4,5,5-tetramethyl-1,3,2-dioxaborolan-2-yl)phenyl)amino)-2-(2,6,6-trimethylcyclohex-1-en-1-yl)acetonitrile] has an activation at 5 µM of 33%.
`CC1(C)OB(c2ccc(NC(C#N)c3cccnc3)cc2)OC1(C)C` (centres unmarked) [Example 3, 2-(pyridin-3-yl)-2-((4-(4,4,5,5-tetramethyl-1,3,2-dioxaborolan-2-yl)phenyl)amino)acetonitrile] gave an activation at 5 µM of 9%.
In the case of `CC1(C)OB(c2ccc(NC(C#N)c3ccc(O)cc3)cc2)OC1(C)C` (centres unmarked) [Example 1, 2-(4-hydroxyphenyl)-2-((4-(4,4,5,5-tetramethyl-1,3,2-dioxaborolan-2-yl)phenyl)amino)acetonitrile], the activation at 5 µM is reported as 24%.
Work on `COc1cc(C(C#N)Nc2ccc(B3OC(C)(C)C(C)(C)O3)cc2)cc(OC)c1OC` (centres unmarked) [Example 7, 2-((4-(4,4,5,5-tetramethyl-1,3,2-dioxaborolan-2-yl)phenyl)amino)-2-(3,4,5-trimethoxyphenyl)acetonitrile] yielded an activation at 5 µM of 41%.
`CC1(C)OB(c2ccc(NC(C#N)c3ccc(B4OC(C)(C)C(C)(C)O4)cc3)cc2)OC1(C)C` (centres unmarked) [Example 6, 2-(4-(4,4,5,5-tetramethyl-1,3,2-dioxaborolan-2-yl)phenyl)-2-((4-(4,4,5,5-tetramethyl-1,3,2-dioxaborolan-2-yl)phenyl)amino)acetonitrile] showed an activation at 5 µM of 17%.
Work on `CC1(C)OB(c2ccc(C(C#N)Nc3ccc(O)cc3)cc2)OC1(C)C` (centres unmarked) [Example 5, 2-((4-hydroxyphenyl)amino)-2-(4-(4,4,5,5-tetramethyl-1,3,2-dioxaborolan-2-yl)phenyl)acetonitrile] yielded an activation at 5 µM of 73%.
